Measured values: ChEMBL document CHEMBL2074294, “Differential effects of microsomal enzyme-inducing chemicals on the hepatic expression of rat organic anion transporters, OATP1 and OATP2” (Hepatology, 2001)

Biological target: T1, Solute carrier organic anion transporter family member 1A4 (Rattus norvegicus, UniProt O35913)
T1 sequence (O35913 whole entry): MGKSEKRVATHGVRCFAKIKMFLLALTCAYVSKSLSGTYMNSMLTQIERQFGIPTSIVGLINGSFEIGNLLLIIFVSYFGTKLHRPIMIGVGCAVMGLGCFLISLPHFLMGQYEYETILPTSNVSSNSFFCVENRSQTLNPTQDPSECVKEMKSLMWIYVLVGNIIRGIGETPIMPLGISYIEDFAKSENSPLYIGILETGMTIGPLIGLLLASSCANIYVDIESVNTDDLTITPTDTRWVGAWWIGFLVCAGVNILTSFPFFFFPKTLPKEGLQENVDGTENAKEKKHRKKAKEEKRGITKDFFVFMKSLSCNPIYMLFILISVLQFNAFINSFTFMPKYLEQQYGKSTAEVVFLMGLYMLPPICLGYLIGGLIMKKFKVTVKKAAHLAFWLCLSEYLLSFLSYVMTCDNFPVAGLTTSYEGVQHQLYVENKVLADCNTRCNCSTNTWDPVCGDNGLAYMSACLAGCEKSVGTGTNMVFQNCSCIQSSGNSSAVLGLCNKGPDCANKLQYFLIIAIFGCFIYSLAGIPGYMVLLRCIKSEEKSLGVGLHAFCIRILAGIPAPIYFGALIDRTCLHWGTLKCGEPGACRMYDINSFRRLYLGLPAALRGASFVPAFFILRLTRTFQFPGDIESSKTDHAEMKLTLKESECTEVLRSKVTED
Assay: TP_TRANSPORTER: Western blot
Assay type: functional

Compound: Cc1ccc2cc3c(ccc4ccccc43)c3c2c1CC3 [3-METHYLCHOLANTHRENE]
- Activity: inducer [Decrease]
